According to patent US4409239A, “Propylene glycol diester solutions of PGE-type compounds” (Syntex (U.S.A.) Inc., priority 1982, dated 1983):

What was measured:
[1] = Stability in peanut oil, USP on storage (comparison); type: physicochemical; conditions: 2 weeks storage at 60° C., 50 mcg per ml peanut oil, 20160 min
[2] = Stability of an E-type prostaglandin in propylene glycol dicaprylate/dicaprate (Captex 200) on storage; type: physicochemical; conditions: for % Remaining of Initial Drug Concentration: 0.25 mg/ml in Captex 200, sealed glass ampules
Procedure: A solution of 0.25 mg (dl)-9-keto-11α,15α-dihydroxy-16-phenoxy-17,18,19,20-tetranorprosta-4,5,13-trans-trienoic acid methyl ester per ml in propylene glycol dicaprylate/dicaprate (Captex 200) was made by dissolving said compound in the solvent with the aid of a magnetic stirrer. Aliquots of this solution were filled into glass ampules and sealed. The ampules were then stored at various temperatures for various durations.

COC(=O)CCC=C=CCC1C(=O)CC(O)C1C=CC(O)COc1ccccc1 (stereo not drawn) [(dl)-9-keto-11α,15α-dihydroxy-16-phenoxy-17,18,19,20-tetranorprosta-4,5,13-trans-trienoic acid methyl ester]
drug remaining [1]: 77.8%
% Remaining of Initial Drug Concentration ([2]; 0 month, 45° C.): 100%
% Remaining of Initial Drug Concentration ([2]; 0 month, 60° C.): 100%
% Remaining of Initial Drug Concentration ([2]; 1 month, 60° C., 43800 min): 97.6%
% Remaining of Initial Drug Concentration ([2]; 3 months, 45° C., 131400 min): 100.7%
% Remaining of Initial Drug Concentration ([2]; 3 months, 60° C., 131400 min): 90.0%
stability in Captex 200 (in words) ([2]; storage at 45° C. and 60° C., 0.25 mg/ml in Captex 200): quite stable
